Inconclusive results and toxic doses are left out. Rule for the calls: active = survival T/C of 150% or more; inactive = T/C below 125% in these data.
System: BDF1 mice, P388 leukemia ip, median survival T/C
Test: NCI In Vivo Anticancer Drug Screen. Data for tumor model P388 Leukemia (intraperitoneal) in B6D2F1 (BDF1) mice
Conditions: endpoint: median survival time, higher = longer survival
Method in brief: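 T/C = treated-group survival ÷ vehicle-control survival; tumour transplanted into mice before dosing.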

[1] = dose: 100.0 mg/kg/injection, schedule: Q01DX009 (ip), vehicle: saline with Tween-80
[2] = dose: 200.0 mg/kg/injection, schedule: Q01DX009 (ip), vehicle: saline with Tween-80
[3] = dose: 400.0 mg/kg/injection, schedule: Q04DX003 (ip), vehicle: saline
[4] = dose: 100.0 mg/kg/injection, schedule: Q04DX003 (ip), vehicle: saline
[5] = dose: 200.0 mg/kg/injection, schedule: Q04DX003 (ip), vehicle: saline
[6] = dose: 400.0 mg/kg/injection, schedule: Q01DX009 (ip), vehicle: saline with Tween-80
[7] = dose: 50.0 mg/kg/injection, schedule: Q01DX009 (ip), vehicle: saline with Tween-80
[8] = dose: 100.0 mg/kg/injection, schedule: Q04DX003 (ip), vehicle: saline with Tween-80

Measured: T/C

CN(Cc1cnc2nc(N)nc(N)c2n1)c1c(Cl)cc(C(=O)NC(CCC(=O)O)C(=O)O)cc1Br (configuration not stated)
active: dose: 1.1 mg/kg/injection, schedule: Q04DX003 (ip), vehicle: saline 150 % of control | dose: 6.3 mg/kg/injection, schedule: Q04DX003 (ip), vehicle: saline 150 % of control | dose: 25.0 mg/kg/injection, schedule: Q01DX009 (ip), vehicle: saline 213 % of control | dose: 50.0 mg/kg/injection, schedule: Q01DX009 (ip), vehicle: saline 261 % of control | [1] 173 % of control | dose: 100.0 mg/kg/injection, schedule: Q01DX009 (ip), vehicle: saline 271 % of control | dose: 115.0 mg/kg/injection, schedule: Q04DX003 (ip), vehicle: saline 236 % of control | dose: 175.0 mg/kg/injection, schedule: Q04DX003 (ip), vehicle: saline 272 % of control | [2] 182 % of control | dose: 264.0 mg/kg/injection, schedule: Q04DX003 (ip), vehicle: saline 254 % of control | [3] 272 % of control
inactive: dose: 0.13 mg/kg/injection, schedule: Q04DX003 (ip), vehicle: saline 108 % of control | dose: 0.19 mg/kg/injection, schedule: Q04DX003 (ip), vehicle: saline 116 % of control | dose: 600.0 mg/kg/injection, schedule: Q04DX003 (ip), vehicle: saline 90 % of control

O=C1OC(COCC#Cc2ccccc2)CN1c1ccccc1 (configuration not stated)
inactive: [1] 104 % of control | [4] 92 % of control | [2] 100 % of control | [5] 107 % of control | [6] 100 % of control | [3] 92 % of control

COc1cc2ccc(C(C)NCC(=O)O)cc2cc1OC (configuration not stated)
inactive: dose: 100.0 mg/kg/injection, schedule: Q01DX009 (ip), vehicle: Klucel (hydroxypropylcellulose) (HPC) 100 % of control | dose: 100.0 mg/kg/injection, schedule: Q04DX003 (ip), vehicle: Klucel (hydroxypropylcellulose) (HPC) 100 % of control | dose: 200.0 mg/kg/injection, schedule: Q01DX009 (ip), vehicle: Klucel (hydroxypropylcellulose) (HPC) 104 % of control | dose: 200.0 mg/kg/injection, schedule: Q04DX003 (ip), vehicle: Klucel (hydroxypropylcellulose) (HPC) 100 % of control | dose: 400.0 mg/kg/injection, schedule: Q01DX009 (ip), vehicle: Klucel (hydroxypropylcellulose) (HPC) 109 % of control | dose: 400.0 mg/kg/injection, schedule: Q04DX003 (ip), vehicle: Klucel (hydroxypropylcellulose) (HPC) 109 % of control

O=C(CCCCC(=O)N/N=C\c1ccccn1)N/N=C\c1ccccn1
inactive: [4] 104 % of control | [5] 100 % of control | [3] 109 % of control

Clc1ccc(-c2ccccc2)cc1Cl
inactive: [7] 115 % of control | [1] 114 % of control | [2] 118 % of control

Nc1nc(N)c(Cl)c(Nc2cccc(Cl)c2)n1
inactive: [7] 102 % of control | [1] 103 % of control | [2] 105 % of control

CCO/C=C(\C#N)C(=O)O
inactive: [8] 88 % of control | [2] 111 % of control | dose: 200.0 mg/kg/injection, schedule: Q04DX003 (ip), vehicle: saline with Tween-80 88 % of control | [6] 119 % of control | dose: 400.0 mg/kg/injection, schedule: Q04DX003 (ip), vehicle: saline with Tween-80 92 % of control

COc1ccc(-c2c[se]c(=S)s2)cc1
inactive: dose: 25.0 mg/kg/injection, schedule: Q01DX009 (ip), vehicle: saline with Tween-80 99 % of control | [7] 94 % of control | [1] 87 % of control

c1nc(SSc2ncnc3nc[nH]c23)c2[nH]cnc2n1
inactive: dose: 3.7 mg/kg/injection, schedule: Q04DX003 (ip), vehicle: saline 87 % of control | dose: 7.5 mg/kg/injection, schedule: Q04DX003 (ip), vehicle: saline 91 % of control | dose: 25.0 mg/kg/injection, schedule: Q04DX003 (ip), vehicle: saline with Tween-80 100 % of control | dose: 50.0 mg/kg/injection, schedule: Q04DX003 (ip), vehicle: saline 120 % of control | [8] 111 % of control | [4] 87 % of control | dose: 150.0 mg/kg/injection, schedule: Q04DX003 (ip), vehicle: saline 90 % of control | dose: 225.0 mg/kg/injection, schedule: Q04DX003 (ip), vehicle: saline 90 % of control | dose: 335.0 mg/kg/injection, schedule: Q04DX003 (ip), vehicle: saline 90 % of control
